# Results: PubChem BioAssay AID2060625 (Molecular Pharmacology Branch, DTP, NCI, 2025)
# Tested on: 186277-243-T-J2-PDC spheroids with HUVEC/MSC, viability
# Assay: Anticancer human tumor 186277-243-T-J2-PDC patient-derived colon adenocarcinoma cell line growth inhibition [CLK]
# Details: for IC50: curve of first compound; for viability, T/C: stronger effect = lower value
# Text: A high-throughput screen of multi-cell type tumor spheroids was designed to identify active combinations of […] and targeted small molecules. Complex spheroids include a stromal component modeled by human endothelial cells (HUVEC) and fibroblasts modeled by human mesenchymal stem cells (MSCs). The concentration ranges selected for each drug and investigational agent were based upon clinically achievable concentrations if the clinical Cmax of the agent was known.
# Compounds. The drugs and investigational agents: cirtuvivint (SM08502; NSC835563), CC-671 (NSC850746), vemurafenib (NSC761431), tapotoclax (NSC804041), sotorasib (NSC818433), adagrasib (NSC831453), MRTX-1133 (NSC836407), BAY2416964 (NSC825713), copanlisib (NSC816437), inavolisib (NSC800729), abemaciclib (NSC768073), osimertinib (NSC779217), entinostat (NSC756642), eltanexor (KPT-8602, NSC794443), venetoclax (NSC766270), ceralasertib (NSC777638), bortezomib (NSC756655), olaparib (NSC753686), talazoparib (NSC767125), alisertib (NSC759677), peposertib (NSC802822), gemcitabine (NSC613327), 5-fluorouracil (NSC19893), SN-38 (NSC673596), oxaliplatin (NSC266046), paclitaxel (NSC125973), and doxorubicin (NSC123127), were obtained from the National Cancer Institute (NCI) Developmental Therapeutics Program Chemical Repository. The FDA-approved anticancer drug set is available from the Developmental Therapeutics Program at https://dtp.cancer.gov/organization/dscb/obtaining/available plates.htm. […] The stock solutions were prepared in dimethyl sulfoxide (DMSO, Sigma-Aldrich, St. Louis, MO, cat. D2650), except for the platinum complexes which were prepared in saline (Quality Biological, Gaithersburg, MD, cat. 114-055-101), at 800-fold the tested concentration and stored at -70 degrees C prior to their use. All drugs and investigational agents were tested over a range starting from a high concentration at or near the clinical Cmax and decreasing in half-log increments. If the clinical Cmax for an agent had not been determined, the highest concentration tested was 10 microM.
# Cell Culture. All cells were maintained in an incubator at 37 degrees C and 5% CO2 with 95% humidity. The PDC lines were cultured according to standard operating procedures established by the NCI PDMR. Briefly, all PDCs were thawed and cultured in Matrigel-coated flasks prepared with a working solution of 1X Ham's F-12 nutrient mix, without supplementation (Invitrogen, Waltham, MA, cat. 11765054), 100 U/mL penicillin-streptomycin (Invitrogen, cat. 15140122), and 2.5% Matrigel (Corning Inc., Corning, NY, cat. 354248) for the first three passages. The 947758-054-R-J2-PDC line was cultured in 6B/Colon 1A media, which includes advanced DMEM/F-12 (Thermo Fisher Scientific, cat. 12634028), 10 mM HEPES (Thermo Fisher Scientific, cat. 15630080), 1X GlutaMAX supplement (Thermo Fisher Scientific, cat. 35050061), 0.1 mg/mL primocin (InvivoGen, cat. ant-pm-2), 10% defined fetal bovine serum, heat inactivated (HyClone Laboratories Inc., cat. SH30070.03HI), 1.25 mM N-Acetyl-L-cysteine (Sigma-Aldrich, cat. A9165), 10 mM nicotinamide (Sigma-Aldrich, cat. N0636), 1X B-27 supplement (Thermo Fisher Scientific, cat. 17504044), 1X N-2 supplement (Thermo Fisher Scientific, cat. 17502048), and 10 microM Y-27632 dihydrochloride (Tocris Bioscience, cat. 1254). The 876862-298-R-J1-PDC was cultured in 6E media, which includes all 6B/Colon 1A media components plus 50% L-WRN conditioned media (ATCC, cat. CRL-3276), 50 ng/mL recombinant human EGF recombinant protein (hEGF; Thermo Fisher Scientific, cat. PHG0311), 10 ng/mL recombinant human fibroblast growth factor 10 (hGFG-10; PeproTech, cat. 100-26), 1 ng/mL recombinant human fibroblast growth factor 2 (hFGF-2; PeproTech, cat. 100-18B), and 1 µM prostaglandin E2 (PGE2; Tocris, cat. 2296). The 227483-062-R1-J1-PDC line was cultured in Panc media, containing all 6E components except hFGF-2, with the addition of 500 nM SB-431542 (Selleckchem, cat. S1067) and 10 nM gastrin (Tocris, cat. 3006). […]
# 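Note: compound exposure lasted seven days before readout.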
# 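Throughout, for viability, T/C: 100% = DMSO vehicle control wells.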
structure (smiles),measurement,setting,value
C=CC(=O)Nc1cc(Nc2nccc(-c3cn(C)c4ccccc34)n2)c(OC)cc1N(C)CCN(C)C + CN1CCN(c2cc(C(=O)Nc3cc4cc(-c5cnn(C)c5)ccc4cn3)ccn2)CC1,IC50,second compound 0.0316 µM,> 300 nM
same,IC50,second compound 0.1 µM,> 300 nM
same,IC50,second compound 0.316 µM,< 0.949 nM
same,IC50,second compound 1 µM,< 0.949 nM
same,IC50,second compound 3.16 µM,< 0.949 nM
same,IC50,second compound 10 µM,< 0.949 nM
same,"viability, T/C","second compound 0.0316 µM, first compound 0.000949 µM",92.1%
same,"viability, T/C","second compound 0.0316 µM, first compound 0.003 µM",92.6%
same,"viability, T/C","second compound 0.0316 µM, first compound 0.00949 µM",90.9%
same,"viability, T/C","second compound 0.0316 µM, first compound 0.03 µM",78.2%
same,"viability, T/C","second compound 0.0316 µM, first compound 0.0949 µM",83.8%
same,"viability, T/C","second compound 0.0316 µM, first compound 0.3 µM",82.2%
same,"viability, T/C","second compound 0.1 µM, first compound 0.000949 µM",87%
same,"viability, T/C","second compound 0.1 µM, first compound 0.003 µM",75.6%
same,"viability, T/C","second compound 0.1 µM, first compound 0.00949 µM",86.8%
same,"viability, T/C","second compound 0.1 µM, first compound 0.03 µM",92.3%
same,"viability, T/C","second compound 0.1 µM, first compound 0.0949 µM",70.9%
same,"viability, T/C","second compound 0.1 µM, first compound 0.3 µM",64%
same,"viability, T/C","second compound 0.316 µM, first compound 0.000949 µM",25.9%
same,"viability, T/C","second compound 0.316 µM, first compound 0.003 µM",26.1%
same,"viability, T/C","second compound 0.316 µM, first compound 0.00949 µM",25.2%
same,"viability, T/C","second compound 0.316 µM, first compound 0.03 µM",21.2%
same,"viability, T/C","second compound 0.316 µM, first compound 0.0949 µM",20.8%
same,"viability, T/C","second compound 0.316 µM, first compound 0.3 µM",14%
same,"viability, T/C","second compound 1 µM, first compound 0.000949 µM",0.45%
same,"viability, T/C","second compound 1 µM, first compound 0.003 µM",0.44%
same,"viability, T/C","second compound 1 µM, first compound 0.00949 µM",1.59%
same,"viability, T/C","second compound 1 µM, first compound 0.03 µM",0.36%
same,"viability, T/C","second compound 1 µM, first compound 0.0949 µM",0.85%
same,"viability, T/C","second compound 1 µM, first compound 0.3 µM",0.32%
same,"viability, T/C","second compound 3.16 µM, first compound 0.000949 µM",1.64%
same,"viability, T/C","second compound 3.16 µM, first compound 0.003 µM",1.27%
same,"viability, T/C","second compound 3.16 µM, first compound 0.00949 µM",2.11%
same,"viability, T/C","second compound 3.16 µM, first compound 0.03 µM",0.98%
same,"viability, T/C","second compound 3.16 µM, first compound 0.0949 µM",0.87%
same,"viability, T/C","second compound 3.16 µM, first compound 0.3 µM",0.74%
same,"viability, T/C","second compound 10 µM, first compound 0.000949 µM",0.65%
same,"viability, T/C","second compound 10 µM, first compound 0.003 µM",0.71%
same,"viability, T/C","second compound 10 µM, first compound 0.00949 µM",0.97%
same,"viability, T/C","second compound 10 µM, first compound 0.03 µM",0.86%
same,"viability, T/C","second compound 10 µM, first compound 0.0949 µM",0.61%
same,"viability, T/C","second compound 10 µM, first compound 0.3 µM",1.03%
Nc1ccccc1NC(=O)c1ccc(CNC(=O)OCc2cccnc2)cc1 + CN1CCN(c2cc(C(=O)Nc3cc4cc(-c5cnn(C)c5)ccc4cn3)ccn2)CC1,IC50,second compound 0.0316 µM,3730 nM
same,IC50,second compound 0.1 µM,1550 nM
same,IC50,second compound 0.316 µM,< 31.6 nM
same,IC50,second compound 1 µM,< 31.6 nM
same,IC50,second compound 3.16 µM,< 31.6 nM
same,IC50,second compound 10 µM,< 31.6 nM
same,"viability, T/C","second compound 0.0316 µM, first compound 0.0316 µM",110%
same,"viability, T/C","second compound 0.0316 µM, first compound 0.1 µM",90.6%
same,"viability, T/C","second compound 0.0316 µM, first compound 0.316 µM",92.7%
same,"viability, T/C","second compound 0.0316 µM, first compound 1 µM",101%
same,"viability, T/C","second compound 0.0316 µM, first compound 3.16 µM",57%
same,"viability, T/C","second compound 0.0316 µM, first compound 10 µM",7.85%
same,"viability, T/C","second compound 0.1 µM, first compound 0.0316 µM",84.4%
same,"viability, T/C","second compound 0.1 µM, first compound 0.1 µM",78%
same,"viability, T/C","second compound 0.1 µM, first compound 0.316 µM",77.3%
same,"viability, T/C","second compound 0.1 µM, first compound 1 µM",65.3%
same,"viability, T/C","second compound 0.1 µM, first compound 3.16 µM",25.8%
same,"viability, T/C","second compound 0.1 µM, first compound 10 µM",2.96%
same,"viability, T/C","second compound 0.316 µM, first compound 0.0316 µM",22.3%
same,"viability, T/C","second compound 0.316 µM, first compound 0.1 µM",19.1%
same,"viability, T/C","second compound 0.316 µM, first compound 0.316 µM",15.2%
same,"viability, T/C","second compound 0.316 µM, first compound 1 µM",15.9%
same,"viability, T/C","second compound 0.316 µM, first compound 3.16 µM",2.42%
same,"viability, T/C","second compound 0.316 µM, first compound 10 µM",1.03%
same,"viability, T/C","second compound 1 µM, first compound 0.0316 µM",1.13%
same,"viability, T/C","second compound 1 µM, first compound 0.1 µM",1.4%
same,"viability, T/C","second compound 1 µM, first compound 0.316 µM",0.97%
same,"viability, T/C","second compound 1 µM, first compound 1 µM",1.21%
same,"viability, T/C","second compound 1 µM, first compound 3.16 µM",1.83%
same,"viability, T/C","second compound 1 µM, first compound 10 µM",0.7%
same,"viability, T/C","second compound 3.16 µM, first compound 0.0316 µM",1.82%
same,"viability, T/C","second compound 3.16 µM, first compound 0.1 µM",1.26%
same,"viability, T/C","second compound 3.16 µM, first compound 0.316 µM",0.87%
same,"viability, T/C","second compound 3.16 µM, first compound 1 µM",2.2%
same,"viability, T/C","second compound 3.16 µM, first compound 3.16 µM",1.61%
same,"viability, T/C","second compound 3.16 µM, first compound 10 µM",0.94%
same,"viability, T/C","second compound 10 µM, first compound 0.0316 µM",1.7%
same,"viability, T/C","second compound 10 µM, first compound 0.1 µM",0.57%
same,"viability, T/C","second compound 10 µM, first compound 0.316 µM",0.67%
same,"viability, T/C","second compound 10 µM, first compound 1 µM",2.12%
same,"viability, T/C","second compound 10 µM, first compound 3.16 µM",2.19%
same,"viability, T/C","second compound 10 µM, first compound 10 µM",0.39%
